We go through 21 molecules from patent publication US20260297080A1, “BICYCLIC COMPOUNDS AS CDK INHIBITORS” (BeOne Medicines I GmbH, priority 2022, published 2026).

For one assay, the target named is CDK2/Cyclin E1 (Homo sapiens, UniProt P24941). Description: CDK2/Cyclin E1 Biochemical Assay (TR-FRET), 0.060 mM ATP. Particulars: 0.15 μM Rb (Ser780)-biotin substrate, pH7.0, 60 min preincubation, 120 min reaction, room temperature. The method in brief: (§1)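 Inhibitor concentrations up to 10 μM were preincubated with each cyclin–kinase complex for 60 minutes before ATP and biotinylated Rb (Ser780) substrate (0.15 μM) were added. After 120 minutes at room temperature, phosphorylation was quantified by HTRF and IC50 values were fitted with a four-parameter logistic equation.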
On the technique in general: Time-resolved FRET reads energy transfer from a long-lived donor to a nearby acceptor.

The target in another assay is CDK1/Cyclin B1 (Homo sapiens, UniProt P06493). The assay is described as follows: CDK1/Cyclin B1 Biochemical Assay (TR-FRET), 0.015 mM ATP. Particulars: 0.15 μM Rb (Ser780)-biotin substrate, pH7.0, 60 min preincubation, 120 min reaction, room temperature. The method, boiled down: as §1
Chain of CDK1/Cyclin B1 (P06493 whole entry): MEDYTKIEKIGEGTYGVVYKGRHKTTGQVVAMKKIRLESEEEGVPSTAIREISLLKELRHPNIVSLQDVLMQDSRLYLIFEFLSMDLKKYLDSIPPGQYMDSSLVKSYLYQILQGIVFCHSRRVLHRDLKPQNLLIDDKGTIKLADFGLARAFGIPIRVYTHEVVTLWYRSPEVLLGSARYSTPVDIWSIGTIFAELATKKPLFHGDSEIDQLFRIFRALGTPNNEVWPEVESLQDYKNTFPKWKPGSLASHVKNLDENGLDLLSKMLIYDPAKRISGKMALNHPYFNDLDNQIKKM
Chain of CDK1/Cyclin B1 (P14635 whole entry partner): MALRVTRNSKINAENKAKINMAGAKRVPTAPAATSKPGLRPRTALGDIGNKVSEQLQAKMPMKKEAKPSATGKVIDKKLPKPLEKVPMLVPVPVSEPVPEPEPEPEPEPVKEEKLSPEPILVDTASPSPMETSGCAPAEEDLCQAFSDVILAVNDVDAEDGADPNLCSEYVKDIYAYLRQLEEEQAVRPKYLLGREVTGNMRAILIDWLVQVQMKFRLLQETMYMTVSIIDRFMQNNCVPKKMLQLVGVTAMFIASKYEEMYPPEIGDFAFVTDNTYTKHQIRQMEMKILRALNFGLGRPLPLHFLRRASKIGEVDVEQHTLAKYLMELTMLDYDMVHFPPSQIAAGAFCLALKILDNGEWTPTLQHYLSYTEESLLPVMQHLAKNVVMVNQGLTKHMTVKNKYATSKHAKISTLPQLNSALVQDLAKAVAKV

For the molecule `CC1(NC(=O)O[C@H]2CC[C@@H](c3cc(Nc4ccc5c(c4F)CN(C4CC4)S5(=O)=O)n[nH]3)C2)CC1` (single isomer, unassigned) [Example 119b, cis-3-(3-((2-cyclopropyl-4-fluoro-1,1-dioxido-2,3-dihydrobenzo[d]isothiazol-5-yl)amino)-1H-pyrazol-5-yl)cyclopentyl(1-methylcyclopropyl)carbamate], the IC50 stood at 1.9 nM on CDK2/Cyclin E1 and 114 nM at CDK1/Cyclin B1.
For `C[C@@H](CO)NC(=O)O[C@H]1CC[C@@H](c2cc(Nc3ccc4c(c3)CS(=O)(=O)N4C)n[nH]2)C1` (relative stereo) [Example 324, cis-3-(3-((1-methyl-2,2-dioxido-1,3-dihydrobenzo[c]isothiazol-5-yl)amino)-1H-pyrazol-5-yl)cyclopentyl((S)-1-hydroxypropan-2-yl)carbamate] the same measures were 3.3 nM and 83 nM.
For `CC(C)NC(=O)O[C@H]1CC[C@@H](c2cc(Nc3ccc4c(c3)S(=O)(=O)NC4C)[nH]n2)C1` (single isomer, unassigned) [Example 5b, cis-3-(5-((3-methyl-1,1-dioxido-2,3-dihydrobenzo[d]isothiazol-6-yl)amino)-1H-pyrazol-3-yl)cyclopentyl isopropylcarbamate] the same measures were 1 nM and 14 nM.
In the same order, the values of `CC(C)NC(=O)O[C@H]1CO[C@@H](c2cc(Nc3ccc4c(c3F)CNS4(=O)=O)n[nH]2)C1` (relative stereo) [Example 378, 5-(3-((4-fluoro-1,1-dioxido-2,3-dihydrobenzo[d]isothiazol-5-yl)amino)-1H-pyrazol-5-yl)tetrahydrofuran-3-yl isopropylcarbamate] are 9.3 nM and 496 nM.
Turning to `CCCNC(=O)O[C@H]1CC[C@@H](c2cc(Nc3ccc4c(c3F)CS(=O)(=O)N4C)n[nH]2)C1` (single isomer, unassigned) [Example 256b, cis-3-(3-((4-fluoro-1-methyl-2,2-dioxido-1,3-dihydrobenzo[c]isothiazol-5-yl)amino)-1H-pyrazol-5-yl)cyclopentyl propylcarbamate], the figures for the IC50 on CDK2/Cyclin E1 and on CDK1/Cyclin B1 were 4 nM and 130 nM, respectively.
For `CC(C)NC(=O)O[C@H]1CC[C@@H](c2cc(Nc3cc(F)c4c(c3)CS(=O)(=O)N4CC(F)(F)F)n[nH]2)C1` (relative stereo) [Example 281, cis-3-(3-((7-fluoro-2,2-dioxido-1-(2,2,2-trifluoroethyl)-1,3-dihydrobenzo[c]isothiazol-5-yl)amino)-1H-pyrazol-5-yl)cyclopentyl isopropylcarbamate] the same measures were 8.1 nM and 131 nM.
As to `COCCN1Cc2cc(Nc3cc([C@@H]4CC[C@H](OC(=O)NC(C)C)C4)[nH]n3)c(F)cc2S1(=O)=O` (relative stereo) [Example 48, cis-3-(3-((6-fluoro-2-(2-methoxyethyl)-1,1-dioxido-2,3-dihydrobenzo[d]isothiazol-5-yl)amino-1H-pyrazol-5-yl)cyclopentyl isopropylcarbamate], the IC50 at CDK2/Cyclin E1 was 243 nM; against CDK1/Cyclin B1, above 10000 nM.
In the same order, the values of `CC(C)NC(=O)O[C@H]1CC[C@@H](c2cc(Nc3ccc4c(c3)CS(=O)(=O)N4CCO)n[nH]2)C1` (single isomer, unassigned) [Example 219b, cis-3-(3-((1-(2-hydroxyethyl)-2,2-dioxido-1,3-dihydrobenzo[c]isothiazol-5-yl)amino)-1H-pyrazol-5-yl)cyclopentyl isopropylcarbamate] are 3.6 nM and 28 nM.
For `COCC1(NC(=O)O[C@H]2CC[C@@H](c3cc(Nc4ccc5c(c4)CS(=O)(=O)N5C)n[nH]3)C2)CC1` (relative stereo) [Example 228, cis-3-(3-((1-methyl-2,2-dioxido-1,3-dihydrobenzo[c]isothiazol-5-yl)amino)-1H-pyrazol-5-yl)cyclopentyl(1-(methoxymethyl)cyclopropyl)carbamate] the same measures were 9.4 nM and 123 nM.
For `[2H]C([2H])([2H])C1c2cc(Nc3cc([C@@H]4CC[C@H](OC(=O)NCCC)C4)[nH]n3)cc(F)c2N(C([2H])([2H])[2H])S1(=O)=O` (relative stereo) [Example 284, cis-3-(3-((7-fluoro-1,3-bis(methyl-d3)-2,2-dioxido-1,3-dihydrobenzo[c]isothiazol-5-yl)amino)-1H-pyrazol-5-yl)cyclopentyl propylcarbamate] the same measures were 8.3 nM and 61 nM.
Regarding `CN1c2ccc(Nc3cc([C@@H]4CC[C@H](OC(=O)NC5(C)COC5)C4)[nH]n3)c(F)c2CS1(=O)=O` (single isomer, unassigned) [Example 332a, cis-3-(3-((4-fluoro-1-methyl-2,2-dioxido-1,3-dihydrobenzo[c]isothiazol-5-yl)amino)-1H-pyrazol-5-yl)cyclopentyl(3-methyloxetan-3-yl)carbamate], the figures for the IC50 at CDK2/Cyclin E1 and against CDK1/Cyclin B1 were 1.9 nM and 367 nM, respectively.
For `Cc1c(Nc2cc([C@@H]3CC[C@H](OC(=O)NC(C)C)C3)[nH]n2)ccc2c1CN(C)S2(=O)=O` (relative stereo) [Example 35, cis-3-(3-((2,4-dimethyl-1,1-dioxido-2,3-dihydrobenzo[d]isothiazol-5-yl)amino)-1H-pyrazol-5-yl)cyclopentyl isopropylcarbamate] the same measures were 8.9 nM and 296 nM.
For `CC(=O)N1CC(CN2Cc3c(ccc(Nc4cc([C@@H]5CC[C@H](OC(=O)NC(C)C)C5)[nH]n4)c3F)S2(=O)=O)C1` (relative stereo) [Example 107, cis-3-(3-((2-((1-acetylazetidin-3-yl)methyl)-4-fluoro-1,1-dioxido-2,3-dihydrobenzo[d]isothiazol-5-yl)amino)-1H-pyrazol-5-yl)cyclopentyl isopropylcarbamate] the same measures were 9.6 nM and 532 nM.
Consider `CC(C)NC(=O)O[C@H]1CC[C@@H](c2cc(Nc3ccc4c(c3F)CN(C3CCCN(C)C3=O)S4(=O)=O)n[nH]2)C1` (relative stereo) [Example 88, cis-3-(3-((4-fluoro-2-(1-methyl-2-oxopiperidin-3-yl)-1,1-dioxido-2,3-dihydrobenzo[d]isothiazol-5-yl)amino)-1H-pyrazol-5-yl)cyclopentyl isopropylcarbamate], for which the IC50 against CDK2/Cyclin E1 amounted to 10 nM; against CDK1/Cyclin B1 it was 1010 nM.
For `CC(C)NC(=O)O[C@H]1CC[C@@H](c2cc(Nc3ccc4c(c3)CCS(=O)(=O)N4)n[nH]2)C1` (single isomer, unassigned) [Example 246a, cis-3-(3-((2,2-dioxido-3,4-dihydro-1H-benzo[c][1,2]thiazin-6-yl)amino)-1H-pyrazol-5-yl)cyclopentyl isopropylcarbamate] the same measures were 3.4 nM and 201 nM.
For `CCCNC(=O)O[C@H]1CC[C@@H](c2cc(Nc3ccc4c(c3F)CN(C3CC3)S4(=O)=O)n[nH]2)C1` (single isomer, unassigned) [Example 118a, cis-3-(3-((2-cyclopropyl-4-fluoro-1,1-dioxido-2,3-dihydrobenzo[d]isothiazol-5-yl)amino)-1H-pyrazol-5-yl)cyclopentyl propylcarbamate] the same measures were 14 nM and 395 nM.
Regarding `CC(C)NC(=O)O[C@H]1CC[C@@H](c2cc(Nc3ccc4c(c3F)CN(C3CCN(Cc5ccccc5)CC3)S4(=O)=O)n[nH]2)C1` (relative stereo) [Example 63, cis-3-(3-((2-(1-benzylpiperidin-4-yl)-4-fluoro-1,1-dioxido-2,3-dihydrobenzo[d]isothiazol-5-yl)amino)-1H-pyrazol-5-yl)cyclopentyl isopropylcarbamate], the figures for the IC50 on CDK2/Cyclin E1 and against CDK1/Cyclin B1 were 23 nM and 1110 nM, respectively.
In the same order, the values of `CN1c2ccc(Nc3cc([C@@H]4CC[C@H](OC(=O)NCCC(F)(F)F)C4)[nH]n3)cc2CS1(=O)=O` (relative stereo) [Example 230, cis-3-(3-((1-methyl-2,2-dioxido-1,3-dihydrobenzo[c]isothiazol-5-yl)amino)-1H-pyrazol-5-yl)cyclopentyl(3,3,3-trifluoropropyl)carbamate] are 9.8 nM and 78 nM.
In the same order, the values of `O=C(NCCC(F)(F)F)O[C@H]1CC[C@@H](c2cc(Nc3ccc4c(c3F)CNS4(=O)=O)n[nH]2)C1` (single isomer, unassigned) [Example 154b, cis-3-(3-((4-fluoro-1,1-dioxido-2,3-dihydrobenzo[d]isothiazol-5-yl)amino)-1H-pyrazol-5-yl)cyclopentyl(3,3,3-trifluoropropyl)carbamate] are 3.5 nM and 69 nM.
For `CC1(O)CCN(C(=O)O[C@H]2CC[C@@H](c3cc(Nc4ccc5c(c4)CNS5(=O)=O)n[nH]3)C2)C1` (relative stereo) [Example 176, cis-3-(3-((1,1-dioxido-2,3-dihydrobenzo[d]isothiazol-5-yl)amino)-1H-pyrazol-5-yl)cyclopentyl 3-hydroxy-3-methylpyrrolidine-1-carboxylate] the same measures were 8 nM and 230 nM.
In the case of `CC(C)NC(=O)O[C@H]1CC[C@@H](c2cc(Nc3ccc4c(c3F)CN(C3CC(O)C3)S4(=O)=O)n[nH]2)C1` (relative stereo) [Example 84, 3-(3-((4-fluoro-2-(3-hydroxycyclobutyl)-1,1-dioxido-2,3-dihydrobenzo[d]isothiazol-5-yl)amino)-1H-pyrazol-5-yl)cyclopentyl isopropylcarbamate], the IC50 against CDK2/Cyclin E1 turned out to be 8.6 nM; against CDK1/Cyclin B1, 390 nM.

For orientation: IC50 means the midpoint of a concentration-inhibition curve. Read a high IC50 as weaker potency in that assay.
